How the values were obtained:
Experiment in all cases: relative viability (nuclei count vs DMSO), 5 days (fraction); higher = more cells survive
NCI-H322M = test system: NCI-H322M
How it was run: (§1)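 Relative viability was taken as the ratio of nuclei in treated wells to nuclei in vehicle wells. Lung cancer cell lines in 1536-well plates received compounds by pin tool one day after seeding, either one drug alone or a fixed anchor-drug dose plus five library-drug doses (not always all listed) in √10 steps. Nuclei were counted on 4× images after 5 days of treatment, and values are medians of duplicate plates.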

NCI-H838 = test system: NCI-H838
How it was run: as §1

UMC-11 = test system: UMC-11
How it was run: as §1

RERF-LC-KJ = test system: RERF-LC-KJ
How it was run: as §1

ABC-1 = test system: ABC-1
How it was run: as §1

NCI-H2023 = test system: NCI-H2023
How it was run: as §1

A-427 = test system: A-427
How it was run: as §1

NCI-H1793 = test system: NCI-H1793
How it was run: as §1

NCI-H2009 = test system: NCI-H2009
How it was run: as §1

NCI-H441 = test system: NCI-H441
How it was run: as §1

NCI-H1944 = test system: NCI-H1944
How it was run: as §1

HCC-15 = test system: HCC-15
How it was run: as §1

NCI-H1915 = test system: NCI-H1915
How it was run: as §1

NCI-H1734 = test system: NCI-H1734
How it was run: as §1

SW 1573 = test system: SW 1573
How it was run: as §1

NCI-H2347 = test system: NCI-H2347
How it was run: as §1

EPLC-272H = test system: EPLC-272H
How it was run: as §1

LC-2-ad = test system: LC-2-ad
How it was run: as §1

LK-2 = test system: LK-2
How it was run: as §1

NCI-H647 = test system: NCI-H647
How it was run: as §1

NCI-H358 = test system: NCI-H358
How it was run: as §1

Cc1cn(-c2cc(NC(=O)c3ccc(C)c(Nc4nccc(-c5cccnc5)n4)c3)cc(C(F)(F)F)c2)cn1 [Nilotinib] + CS(=O)(=O)N1CCN(Cc2cc3nc(-c4cccc5[nH]ncc45)nc(N4CCOCC4)c3s2)CC1 [Pictilisib] (partner 1 µM)
relative viability (NCI-H322M; first compound 0.001 µM): 0.651
relative viability (NCI-H322M; first compound 0.003162 µM): 0.503
relative viability (NCI-H322M; first compound 0.03162 µM): 0.529
relative viability (NCI-H322M; first compound 0.1 µM): 0.528
relative viability (NCI-H838; first compound 0.001 µM): 0.408
relative viability (NCI-H838; first compound 0.003162 µM): 0.491
relative viability (NCI-H838; first compound 0.01 µM): 0.335
relative viability (NCI-H838; first compound 0.03162 µM): 0.41
relative viability (NCI-H838; first compound 0.1 µM): 0.336
relative viability (UMC-11; first compound 0.001 µM): 0.801
relative viability (UMC-11; first compound 0.003162 µM): 1.03
relative viability (UMC-11; first compound 0.01 µM): 0.972
relative viability (UMC-11; first compound 0.1 µM): 0.287
relative viability (RERF-LC-KJ; first compound 0.001 µM): 0.549
relative viability (RERF-LC-KJ; first compound 0.003162 µM): 0.572
relative viability (RERF-LC-KJ; first compound 0.01 µM): 0.533
relative viability (RERF-LC-KJ; first compound 0.03162 µM): 0.591
relative viability (RERF-LC-KJ; first compound 0.1 µM): 0.55
relative viability (ABC-1; first compound 0.001 µM): 0.758
relative viability (ABC-1; first compound 0.003162 µM): 0.697
relative viability (ABC-1; first compound 0.01 µM): 0.788
relative viability (ABC-1; first compound 0.03162 µM): 0.619
relative viability (ABC-1; first compound 0.1 µM): 0.346
relative viability (NCI-H2023; first compound 0.001 µM): 0.225
relative viability (NCI-H2023; first compound 0.003162 µM): 0.192
relative viability (NCI-H2023; first compound 0.01 µM): 0.226
relative viability (NCI-H2023; first compound 0.03162 µM): 0.221
relative viability (NCI-H2023; first compound 0.1 µM): 0.101
relative viability (A-427; first compound 0.001 µM): 0.728
relative viability (A-427; first compound 0.01 µM): 0.731
relative viability (A-427; first compound 0.03162 µM): 0.658
relative viability (A-427; first compound 0.1 µM): 0.11
relative viability (NCI-H1793; first compound 0.003162 µM): 0.32
relative viability (NCI-H1793; first compound 0.01 µM): 0.31
relative viability (NCI-H1793; first compound 0.03162 µM): 0.31
relative viability (NCI-H1793; first compound 0.1 µM): 0.235
relative viability (NCI-H2009; first compound 0.001 µM): 0.79
relative viability (NCI-H2009; first compound 0.003162 µM): 0.913
relative viability (NCI-H2009; first compound 0.01 µM): 0.958
relative viability (NCI-H2009; first compound 0.03162 µM): 0.655
relative viability (NCI-H2009; first compound 0.1 µM): 0.187
relative viability (NCI-H441; first compound 0.001 µM): 0.371
relative viability (NCI-H441; first compound 0.003162 µM): 0.576
relative viability (NCI-H441; first compound 0.01 µM): 0.532
relative viability (NCI-H441; first compound 0.1 µM): 0.305
relative viability (NCI-H1944; first compound 0.001 µM): 0.355
relative viability (NCI-H1944; first compound 0.003162 µM): 0.342
relative viability (NCI-H1944; first compound 0.01 µM): 0.358
relative viability (NCI-H1944; first compound 0.03162 µM): 0.345
relative viability (NCI-H1944; first compound 0.1 µM): 0.234
relative viability (HCC-15; first compound 0.001 µM): 0.703
relative viability (HCC-15; first compound 0.003162 µM): 0.874
relative viability (HCC-15; first compound 0.01 µM): 0.843
relative viability (HCC-15; first compound 0.03162 µM): 0.542
relative viability (HCC-15; first compound 0.1 µM): 0.301
relative viability (NCI-H1915; first compound 0.001 µM): 0.958
relative viability (NCI-H1915; first compound 0.003162 µM): 1.02
relative viability (NCI-H1915; first compound 0.01 µM): 0.903
relative viability (NCI-H1915; first compound 0.03162 µM): 0.993
relative viability (NCI-H1915; first compound 0.1 µM): 0.408
relative viability (NCI-H1734; first compound 0.001 µM): 0.445
relative viability (NCI-H1734; first compound 0.003162 µM): 0.48
relative viability (NCI-H1734; first compound 0.01 µM): 0.447
relative viability (NCI-H1734; first compound 0.03162 µM): 0.384
relative viability (NCI-H1734; first compound 0.1 µM): 0.236
relative viability (SW 1573; first compound 0.001 µM): 0.486
relative viability (SW 1573; first compound 0.003162 µM): 0.652
relative viability (SW 1573; first compound 0.01 µM): 0.5
relative viability (SW 1573; first compound 0.03162 µM): 0.427
relative viability (SW 1573; first compound 0.1 µM): 0.588
relative viability (NCI-H2347; first compound 0.001 µM): 0.644
relative viability (NCI-H2347; first compound 0.003162 µM): 0.679
relative viability (NCI-H2347; first compound 0.01 µM): 0.717
relative viability (NCI-H2347; first compound 0.03162 µM): 0.635
relative viability (NCI-H2347; first compound 0.1 µM): 0.401
relative viability (EPLC-272H; first compound 0.001 µM): 0.273
relative viability (EPLC-272H; first compound 0.003162 µM): 0.308
relative viability (EPLC-272H; first compound 0.01 µM): 0.258
relative viability (EPLC-272H; first compound 0.03162 µM): 0.338
relative viability (EPLC-272H; first compound 0.1 µM): 0.258
relative viability (LC-2-ad; first compound 0.001 µM): 0.385
relative viability (LC-2-ad; first compound 0.003162 µM): 0.518
relative viability (LC-2-ad; first compound 0.01 µM): 0.547
relative viability (LC-2-ad; first compound 0.03162 µM): 0.379
relative viability (LC-2-ad; first compound 0.1 µM): 0.117
relative viability (LK-2; first compound 0.001 µM): 0.614
relative viability (LK-2; first compound 0.003162 µM): 0.451
relative viability (LK-2; first compound 0.01 µM): 0.577
relative viability (LK-2; first compound 0.03162 µM): 0.594
relative viability (LK-2; first compound 0.1 µM): 0.608
relative viability (NCI-H647; first compound 0.001 µM): 0.528
relative viability (NCI-H647; first compound 0.003162 µM): 0.452
relative viability (NCI-H647; first compound 0.01 µM): 0.38
relative viability (NCI-H647; first compound 0.03162 µM): 0.43
relative viability (NCI-H647; first compound 0.1 µM): 0.397
relative viability (NCI-H358; first compound 0.001 µM): 0.375
relative viability (NCI-H358; first compound 0.003162 µM): 0.438
relative viability (NCI-H358; first compound 0.01 µM): 0.348
relative viability (NCI-H358; first compound 0.03162 µM): 0.444
relative viability (NCI-H358; first compound 0.1 µM): 0.301

Source: the supplement of paper PMC10307832
